Literature values as cited in patent US20240173301A1, “2-IMINOBIOTIN FOR USE IN THE TREATMENT OF STROKE” (NEUROPHYXIA B.V., priority 2021, published 2024).
Read-outs that look alike come from different tables or passages of the source. Where no end group is shown, it is not given here.

Columns and labels:
[1] = healthy volunteers; preclinical safety; Phase I and II studies in neonates with asphyxia and adults after cardiac arrest
[2] = in vivo
[3] = adult human patients after cardiac arrest
[4] = single dose

Compound	safety [1]	effect on tissue damage after ischemia-reperfusion [2]	concentration range at which 2-IB is most active in vitro (neuronal culture)	tolerability of eGFR adjusted dose [3]	clinical outcome ([4]; alteplase-treated stroke patients)	clinical outcome ([4]; stroke patients that did not receive alteplase)
N=C1N[C@H]2[C@H](CS[C@H]2CCCCC(=O)O)N1 [2-IB, 2-iminobiotin]	proven to be safe	prevents (further) tissue damage	around 30 ng/ml	tolerated without clinical drug-related adverse events	–	–
YGRKKRRQRRRKLSSIESDV [nerinetide]	–	–	–	–	did not show favorable outcomes	significant improvement
